Results from patent publication US10689377B2 (Mirati Therapeutics, Inc., priority 2017, dated 2020).
Counter-ions that a name gives are not always drawn.

Target: KRas G12C (Homo sapiens, UniProt P01116, G12C)
Test: Cellular inhibition of KRas G12C measured by Phospho-ERK in NCI-H358 cells
Assay type: cell-based
Conditions: pERK(Thr202/Tyr204) normalized with GAPDH, NCI-H358 cells, 3 hours; read-out: IC50
Summary of the method: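 Ratio of phospho-ERK(Thr202/Tyr204) to GAPDH, read by near-infrared secondary antibodies on fixed, permeabilised NCI-H358 cells, expressed relative to DMSO control. Compound exposure was 3 h at 0.5% DMSO. IC50 values come from 4-parameter curve fits.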

KRas G12C, sequence (P01116 1-188 isoform P01116-2 G12C): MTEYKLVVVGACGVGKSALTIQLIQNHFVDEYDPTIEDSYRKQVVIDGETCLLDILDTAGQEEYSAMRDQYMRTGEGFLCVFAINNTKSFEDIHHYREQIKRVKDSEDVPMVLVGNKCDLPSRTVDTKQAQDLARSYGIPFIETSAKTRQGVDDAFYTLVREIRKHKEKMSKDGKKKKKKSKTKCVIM

Row | Structure (SMILES) | IC50
1 | C=CC(=O)N1CCN(c2nc(OCCCN(C)C)nc3c2CCN(c2cc(O)cc4ccccc24)C3)CC1 [Example 10, 1-(4-(2-(3-(dimethylamino)propoxy)-7-(3-hydroxynaphthalen-1-yl)-5,6,7,8-tetrahydropyrido[3,4-d]pyrimidin-4-yl)piperazin-1-yl)prop-2-en-1-one] | > 1000 nM
2 | C=CC(=O)N1CCN(c2nc(OCC3COCCN3C)nc3c2CCN(c2cc(O)cc4ccccc24)C3)CC1 (stereo not drawn) [Example 194, 1-(4-(7-(3-hydroxynaphthalen-1-yl)-2-((4-methylmorpholin-3-yl)methoxy)-5,6,7,8-tetrahydropyrido[3,4-d]pyrimidin-4-yl)piperazin-1-yl)prop-2-en-1-one] | > 1000 nM
3 | C=CC(=O)N1CCN(c2nc(OCCCCN(C)C)nc3c2CCN(c2cc(O)cc4ccccc24)C3)CC1 [Example 40, 1-(4-(2-(4-(dimethylamino)butoxy)-7-(3-hydroxynaphthalen-1-yl)-5,6,7,8-tetrahydropyrido[3,4-d]pyrimidin-4-yl)piperazin-1-yl)prop-2-en-1-one] | 0.1 to 1000 nM
4 | C=CC(=O)N1CCN(c2nc(OCCCN3CCC(OC)C3)nc3c2CCN(c2cc(O)cc4ccccc24)C3)CC1 (stereo not drawn) [Example 137, 1-[4-[7-(3-hydroxy-1-naphthyl)-2-[3-(3-methoxypyrrolidin-1-yl)propoxy]-6,8-dihydro-5H-pyrido[3,4-d]pyrimidin-4-yl]piperazin-1-yl]prop-2-en-1-one] | > 1000 nM
5 | C=CC(=O)N1CCN(c2nc(OCCc3ccccn3)nc3c2CCN(c2cc(O)cc4ccccc24)C3)CC1 [Example 126, 1-(4-(7-(3-hydroxynaphthalen-1-yl)-2-(2-(pyridin-2-yl)ethoxy)-5,6,7,8-tetrahydropyrido[3,4-d]pyrimidin-4-yl)piperazin-1-yl)prop-2-en-1-one trifluoroacetate] | > 1000 nM
6 | C=CC(=O)N1[C@@H]2CC[C@H]1CN(c1nc(OC(C)CN(C)C)nc3c1CCN(c1cc(O)cc4ccccc14)C3)C2 (stereo partly drawn) [Example 45, 1-((1R,5S)-3-(2-((1-(dimethylamino)propan-2-yl)oxy)-7-(3-hydroxynaphthalen-1-yl)-5,6,7,8-tetrahydropyrido[3,4-d]pyrimidin-4-yl)-3,8-diazabicyclo[3.2.1]octan-8-yl)prop-2-en-1-one] | > 1000 nM
7 | C=C(CO)C(=O)N1CCN(c2nc(OC[C@@H]3CCCN3C)nc3c2CCN(c2cccc(C)c2C)C3)C[C@@H]1CC#N [Example 488, 2-((S)-4-(7-(2,3-dimethylphenyl)-2-(((S)-1-methylpyrrolidin-2-yl)methoxy)-5,6,7,8-tetrahydropyrido[3,4-d]pyrimidin-4-yl)-1-(2-(hydroxymethyl)acryloyl)piperazin-2-yl)acetonitrile] | > 1000 nM
8 | C=CC(=O)N1CCN(c2nc(OC[C@@H]3CCCN3C)nc3c2CCN(c2cccc(Cl)c2CC)C3)C[C@@H]1CC#N [Example 337, 2-[(2S)-4-[7-(3-chloro-2-ethyl-phenyl)-2-[[(2S)-1-methylpyrrolidin-2-yl]methoxy]-6,8-dihydro-5H-pyrido[3,4-d]pyrimidin-4-yl]-1-prop-2-enoyl-piperazin-2-yl]acetonitrile] | 0.1 to 1000 nM
9 | C=CC(=O)N1CCN(c2ncnc3c2CCN(c2c(C)ccc4[nH]ncc24)C3)CC1 [Example 7, 1-(4-(7-(5-methyl-1H-indazol-4-yl)-5,6,7,8-tetrahydropyrido[3,4-d]pyrimidin-4-yl)piperazin-1-yl)prop-2-en-1-one] | > 1000 nM
10 | C=CC(=O)N1CCN(c2nc(OC[C@@H](O)CN3CCOCC3)nc3c2CCN(c2cc(O)cc4ccccc24)C3)CC1 (single isomer, unassigned) [Example 216] | > 1000 nM
11 | C=CC(=O)N1CCN(c2nc(OC[C@@H]3CCCN3C)nc3c2CCN(c2ccc(F)cc2C(F)(F)F)C3)CC1CC#N (stereo partly drawn) [Example 276] | 0.1 to 1000 nM

Continued, values first:

Row | IC50 | Structure (SMILES)
12 | 0.1 to 1000 nM | COC/C=C/C(=O)N1CCN(c2nc(OC[C@@H]3CCCN3C)nc3c2CCN(c2cccc(C)c2C)C3)C[C@@H]1CC#N [Example 489, 2-((S)-4-(7-(2,3-dimethylphenyl)-2-(((S)-1-methylpyrrolidin-2-yl)methoxy)-5,6,7,8-tetrahydropyrido[3,4-d]pyrimidin-4-yl)-1-((E)-4-methoxybut-2-enoyl)piperazin-2-yl)acetonitrile]
13 | 0.1 to 1000 nM | C=CC(=O)N1CCN(c2nc(OC[C@@H]3CCCN3CC3CC3)nc3c2CCN(c2cccc4ccccc24)C3)CC1CC#N (stereo partly drawn) [Example 396, 2-(1-acryloyl-4-(2-(((S)-1-(cyclopropylmethyl)pyrrolidin-2-yl)methoxy)-7-(naphthalen-1-yl)-5,6,7,8-tetrahydropyrido[3,4-d]pyrimidin-4-yl)piperazin-2-yl)acetonitrile]
14 | 0.1 to 1000 nM | C=CC(=O)N1CCN(c2nc(OC[C@@H]3CC(F)(F)CN3C)nc3c2CCN(c2cccc4ccccc24)C3)C[C@@H]1CC#N [Example 447, 2-((S)-1-Acryloyl-4-(2-(((S)-4,4-difluoro-1-methylpyrrolidin-2-yl)methoxy)-7-(naphthalen-1-yl)-5,6,7,8-tetrahydropyrido[3,4-d]pyrimidin-4-yl)piperazin-2-yl)acetonitrile]
15 | 0.1 to 1000 nM | C=CC(=O)N1CCN(c2nc(O[C@@H]3CCCN(C)C3)nc3c2CCN(c2cc(O)cc4ccccc24)C3)CC1 [Example 67, (R)-1-(4-(7-(3-hydroxynaphthalen-1-yl)-2-((1-methylpiperidin-3-yl)oxy)-5,6,7,8-tetrahydropyrido[3,4-d]pyrimidin-4-yl)piperazin-1-yl)prop-2-en-1-one]
16 | 0.1 to 1000 nM | C=CC(=O)N1CCN(c2nc(OCCCN3CCN(C(C)=O)CC3)nc3c2CCN(c2cc(O)cc4ccccc24)C3)CC1 [Example 135, 1-[4-[2-[3-(4-acetylpiperazin-1-yl)propoxy]-7-(3-hydroxy-1-naphthyl)-6,8-dihydro-5H-pyrido[3,4-d]pyrimidin-4-yl]piperazin-1-yl]prop-2-en-1-one]
17 | 0.1 to 1000 nM | C=CC(=O)N1CCN(c2nc(OC[C@@H]3CN(C)CCO3)nc3c2CCN(c2cccc4ccccc24)C3)CC1CC#N (stereo partly drawn) [Example 444, 2-(1-acryloyl-4-(2-(((S)-4-methylmorpholin-2-yl)methoxy)-7-(naphthalen-1-yl)-5,6,7,8-tetrahydropyrido[3,4-d]pyrimidin-4-yl)piperazin-2-yl)acetonitrile]
18 | 0.1 to 1000 nM | C=CC(=O)N1CCN(c2nc(OC[C@@H]3CCCN3CCOC)nc3c2CCN(c2cccc4ccccc24)C3)CC1CC#N (stereo partly drawn) [Example 380, 2-(1-acryloyl-4-(2-(((S)-1-(2-methoxyethyl)pyrrolidin-2-yl)methoxy)-7-(naphthalen-1-yl)-5,6,7,8-tetrahydropyrido[3,4-d]pyrimidin-4-yl)piperazin-2-yl)acetonitrile]
19 | 0.1 to 1000 nM | C=CC(=O)N1CCN(c2nc(OC[C@@H]3CCCN3C)nc3c2CCN(c2cccc4ccc(F)cc24)C3)CC1CC#N (stereo partly drawn) [Example 302]
20 | 0.1 to 1000 nM | C=C(F)C(=O)N1CCN(c2nc(OC[C@@H]3CCCN3C)nc3c2CCN(c2cncc4ccc(F)cc24)C3)C[C@@H]1CC#N [Example 609, 2-[(2S)-4-[7-(6-fluoro-4-isoquinolyl)-2-[[(2S)-1-methylpyrrolidin-2-yl]methoxy]-6,8-dihydro-5H-pyrido[3,4-d]pyrimidin-4-yl]-1-(2-fluoroprop-2-enoyl)piperazin-2-yl]acetonitrile]
21 | 0.1 to 1000 nM | C=CC(=O)N1CCN(c2nc(OC[C@@H]3CCCN3C)nc3c2CCN(c2cccc4ccn(C)c24)C3)C[C@@H]1CC#N [Example 436, 2-((S)-1-acryloyl-4-(7-(1-methyl-1H-indol-7-yl)-2-(((S)-1-methylpyrrolidin-2-yl)methoxy)-5,6,7,8-tetrahydropyrido[3,4-d]pyrimidin-4-yl)piperazin-2-yl)acetonitrile]
22 | 0.1 to 1000 nM | C=CC(=O)N1CCN(c2nc(OC[C@@H]3CCCN3C)nc3c2CCN(c2cnccc2C(F)(F)F)C3)CC1CC#N (stereo partly drawn) [Example 212, 2-(1-acryloyl-4-(2-(((S)-1-methylpyrrolidin-2-yl)methoxy)-7-(4-(trifluoromethyl)pyridin-3-yl)-5,6,7,8-tetrahydropyrido[3,4-d]pyrimidin-4-yl)piperazin-2-yl)acetonitrile]
23 | 0.1 to 1000 nM | C=CC(=O)N1CCN(c2nc(OCCC(=O)N(C)C)nc3c2CCN(c2cccc4cccc(C)c24)C3)C[C@@H]1CC#N [Example 371, (S)-3-((4-(4-acryloyl-3-(cyanomethyl)piperazin-1-yl)-7-(8-methylnaphthalen-1-yl)-5,6,7,8-tetrahydropyrido[3,4-d]pyrimidin-2-yl)oxy)-N,N-dimethylpropanamide]
24 | 0.1 to 1000 nM | C=CC(=O)N1CCN(c2nc(OCC3CCCN(C)C3)nc3c2CCN(c2cc(O)cc4ccccc24)C3)CC1 (stereo not drawn) [Example 72]
25 | 0.1 to 1000 nM | C=CC(=O)N1CCN(c2nc(O[C@H](C)[C@H]3CCCN3C)nc3c2CCN(c2cc(O)cc4ccccc24)C3)CC1 [Example 129, 1-[4-[7-(3-hydroxy-1-naphthyl)-2-[(1R)-1-[(2R)-1-methylpyrrolidin-2-yl]ethoxy]-6,8-dihydro-5H-pyrido[3,4-d]pyrimidin-4-yl]piperazin-1-yl]prop-2-en-1-one]
26 | 0.1 to 1000 nM | C=CC(=O)N1CCN(c2nc(OCCCN3C[C@@H]4C[C@H]3CO4)nc3c2CCN(c2cc(O)cc4ccccc24)C3)CC1 [Example 104, 1-(4-(2-(3-((1S,4S)-2-oxa-5-azabicyclo[2.2.1]heptan-5-yl)propoxy)-7-(3-hydroxynaphthalen-1-yl)-5,6,7,8-tetrahydropyrido[3,4-d]pyrimidin-4-yl)piperazin-1-yl)prop-2-en-1-one]
27 | 0.1 to 1000 nM | C=CC(=O)N1CCN(c2nc(O[C@H](C)CN(C)C)nc3c2CCN(c2cc(O)cc4ccccc24)C3)CC1CC#N (stereo partly drawn) [Example 150, 2-(1-acryloyl-4-(2-(((R)-1-(dimethylamino)propan-2-yl)oxy)-7-(3-hydroxynaphthalen-1-yl)-5,6,7,8-tetrahydropyrido[3,4-d]pyrimidin-4-yl)piperazin-2-yl)acetonitrile]
